Results reported in article PMC8989888, “Development of optimized drug-like small molecule inhibitors of the SARS-CoV-2 3CL protease for treatment of COVID-19” (Nature Communications, 2022).
Like-named read-outs stand apart in the source and are kept apart here.

Target: SARS-CoV-2 3CL protease (Severe acute respiratory syndrome coronavirus 2, UniProt P0DTD1)
Format: biochemical
Set-up: Avg: unit not given here
Conditions: for Inhibition at 10 µM: 10 µM compound; for Inhibition at 100 µM: 100 µM compound; for IC50 / LogIC50: Figure S1 and S2
[1] = log of IC50 (µM), dose-response curve fit
[2] = Conc 10 µM, average response of dose-response curve
[3] = Conc 15 µM, average response of dose-response curve
[4] = Conc 20 µM, average response of dose-response curve
[5] = Conc 50 µM, average response of dose-response curve
[6] = Conc 100 µM, average response of dose-response curve
[7] = Conc 200 µM, average response of dose-response curve
[8] = dose-response retest of fragment hits
[9] = dose-response curve of fragment hit
[10] = Conc 10 µM, mean response (inhibition) of dose-response curve
[11] = Conc 15 µM, mean response (inhibition) of dose-response curve
[12] = Conc 20 µM, mean response (inhibition) of dose-response curve
[13] = Conc 50 µM, mean response (inhibition) of dose-response curve
[14] = Conc 100 µM, mean response (inhibition) of dose-response curve
[15] = Conc 200 µM, mean response (inhibition) of dose-response curve

| SMILES | Inhibition at 10 µM [%] | Inhibition at 100 µM [%] | Avg [2] | Avg [3] | Avg [4] | Avg [5] | Avg [6] | Avg [7] | IC50 [8] [µM] | LogIC50 (log of IC50 in µM) | further results |
| --- | --- | --- | --- | --- | --- | --- | --- | --- | --- | --- | --- |
| Cn1cc(CNC(=O)c2cccnc2S)c(C(F)(F)F)n1 [Z1488388701] | 2 | 100 | – | – | – | – | – | – | – | – | Avg (Conc 10 µM): 2.1; Avg (Conc 15 µM): 19.8; Avg (Conc 20 µM): 26.9; Avg (Conc 50 µM): 96.9; Avg (Conc 100 µM): 107.8; Avg (Conc 200 µM): 105; IC50 (dose-response curve fit): 25.7 µM; LogIC50 [1]: 1.41 |
| CC(C)Cc1ncc(CNC(=O)c2cccnc2S)s1 [Z1494348106] | 4 | 100 | – | – | – | – | – | – | – | – | Avg (Conc 10 µM): 3.5; Avg (Conc 15 µM): 37.1; Avg (Conc 20 µM): 49.8; Avg (Conc 50 µM): 100.8; Avg (Conc 100 µM): 102.9; Avg (Conc 200 µM): 93.1; IC50 (dose-response curve fit): 18.8 µM; LogIC50 [1]: 1.275 |
| O=C(NCc1ncccc1F)c1cccnc1S [Z1499268500] | 17 | 100 | – | – | – | – | – | – | – | – | Avg (Conc 10 µM): 17.2; Avg (Conc 15 µM): 49.3; Avg (Conc 20 µM): 94.7; Avg (Conc 50 µM): 100.1; Avg (Conc 100 µM): 91.4; Avg (Conc 200 µM): 94.2; IC50 (dose-response curve fit): 15 µM; LogIC50 [1]: 1.1775 |
| CC(C)OC1CCC(NC(=O)c2cccnc2S)CC1 (centres unmarked) [Z1500153099] | 2 | 96 | – | – | – | – | – | – | – | – | Avg (Conc 10 µM): 2.2; Avg (Conc 15 µM): 13; Avg (Conc 20 µM): 32.4; Avg (Conc 50 µM): 52.9; Avg (Conc 100 µM): 96.3; Avg (Conc 200 µM): 103; IC50 (dose-response curve fit): 37.9 µM; LogIC50 [1]: 1.579 |
| O=C(NCc1ccc(F)c(CO)c1)c1cccnc1S [Z1501229042] | 27 | 100 | – | – | – | – | – | – | – | – | Avg (Conc 10 µM): 26.5; Avg (Conc 15 µM): 32.3; Avg (Conc 20 µM): 50.8; Avg (Conc 50 µM): 101.4; Avg (Conc 100 µM): 101.9; Avg (Conc 200 µM): 89.2; IC50 (dose-response curve fit): 19.9 µM; LogIC50 [1]: 1.299 |
| O=C(NCC1(O)CCc2ccccc21)c1cccnc1S (centres unmarked) [Z1501256406] | 55 | 82 | – | – | – | – | – | – | – | – | Avg (Conc 10 µM): 55.2; Avg (Conc 15 µM): 87.1; Avg (Conc 20 µM): 101.3; Avg (Conc 50 µM): 96.8; Avg (Conc 100 µM): 82.6; Avg (Conc 200 µM): 65.5 |
| O=C(NCCC1=CCOCC1)c1cccnc1S [Z1510476385] | 0 | 99 | 0.1 | 16 | 18.7 | 80.4 | 98.6 | 100.4 | 31.3 | 1.496 | – |
| Cc1cnccc1CCNC(=O)c1cccnc1S [Z1515958452] | 4 | 100 | 4 | -6.1 | 25.7 | 93.3 | 101.4 | 97.8 | 20.6 | 1.315 | – |
| O=C(CCl)N1CCN(c2ccccc2[N+](=O)[O-])CC1 [Z1562119284] | 20 | 90 | 20 | 20 | 26 | 56.4 | 90 | 97.6 | 44.6 | 1.6496 | – |
| O=C(CCl)N1CCOC(c2ccc(F)cc2)C1 (centres unmarked) [Z1562122812] | 31 | 100 | 31.1 | 36.9 | 59.9 | 101.2 | 96.2 | 101.8 | 18.4 | 1.2639 | – |
| N#C/C=C/S(=O)(=O)c1ccc(Cl)cc1 [Z1649581806] | 18 | 95 | 17.8 | 30.7 | 66.2 | 85.5 | 95.1 | 100.5 | 17.8 | 1.251 | – |
| O=C(CCl)c1ccc2c(c1)CCN(C(=O)C(F)(F)F)C2 [Z1723943157] | 42 | 81 | 42.1 | 47.7 | 60.7 | 76.3 | 81 | 92.3 | 14.4 | 1.159 | – |
| Nc1cccnc1S [Z1741977862] | 21 | 100 | 21.4 | 52.3 | 66.1 | 102.9 | 106.8 | 99.2 | 15.2 | 1.183 | – |
| Nc1nccnc1S [Z1868316802] | 21 | 92 | 20.5 | 24.1 | 32.6 | 92.3 | 91.8 | 82.9 | 23.3 | 1.368 | – |
| OCCc1cnc(S)nc1 [Z2064274637] | 5 | 100 | 5.2 | 28.9 | 36.1 | 91.7 | 103 | 105.7 | 23.4 | 1.369 | – |
| CC1(C)C(=O)Nc2ccc(C(=O)CCl)cc21 [Z2160878465] | 7 | 97 | 6.9 | 29.9 | 41.3 | 60 | 96.5 | 106.7 | 28.6 | 1.456 | – |
| O=C(CCl)c1csc(N2CCCCC2)n1 [Z2469673977] | 51 | 100 | 51.4 | 56.3 | 64 | 57.3 | 102 | 104.1 | – | – | – |
| CN1C(=O)CCc2cc(C(=O)CCl)ccc21 [Z2491497303] | 6 | 87 | 5.9 | 25.5 | 13.7 | 51.4 | 86.8 | 97.7 | 48.8 | 1.688 | – |
| CN1Cc2cc(C(=O)CCl)ccc2NC1=O [Z2491497315] | 16 | 95 | 15.7 | 35.9 | 38.8 | 78.6 | 95.1 | 102.1 | 24.2 | 1.383 | IC50 [9]: 24.2 µM; LogIC50 (log10 of IC50 in µM): 1.383 |
| O=C(CCl)N1CCN(Cc2ccsc2)CC1 [Z2650385668] | 15 | 86 | – | – | – | – | – | – | – | – | Avg [10]: 14.7; Avg [11]: 16.7; Avg [12]: 31.9; Avg [13]: 63.6; Avg [14]: 86.4; Avg [15]: 96.9; IC50 [9]: 35.7 µM; LogIC50 (log10 of IC50 in µM): 1.553 |
| Cc1ccccc1CN1CCCN(C(=O)CCl)CC1 [Z2651952322] | 18 | 91 | – | – | – | – | – | – | – | – | Avg [10]: 17.5; Avg [11]: 31.4; Avg [12]: 33.6; Avg [13]: 62.8; Avg [14]: 90.5; Avg [15]: 99.5; IC50 [9]: 33.1 µM; LogIC50 (log10 of IC50 in µM): 1.52 |
| N#Cc1ccnc(S)c1 [Z2687203952] | 12 | 100 | – | – | – | – | – | – | – | – | Avg [10]: 11.5; Avg [11]: 33.9; Avg [12]: 67.8; Avg [13]: 111.2; Avg [14]: 107.8; Avg [15]: 106.7; IC50 [9]: 17.4 µM; LogIC50 (log10 of IC50 in µM): 1.241 |
| Cc1cnc(=S)[nH]c1 [Z2768165643] | 41 | 100 | – | – | – | – | – | – | – | – | Avg [10]: 41.2; Avg [11]: 59.8; Avg [12]: 69.1; Avg [13]: 106.7; Avg [14]: 109.4; Avg [15]: 108.2; IC50 [9]: 13 µM; LogIC50 (log10 of IC50 in µM): 1.114 |
| O=C(CCl)c1ccc(F)c(C(=O)CCl)c1 [Z2768504793] | 3 | 63 | – | – | – | – | – | – | – | – | Avg [10]: 3.4; Avg [11]: 11.1; Avg [12]: 34.1; Avg [13]: 48.5; Avg [14]: 62.9; Avg [15]: 79.1; IC50 [9]: 50.2 µM; LogIC50 (log10 of IC50 in µM): 1.7 |
| C=CS(=O)(=O)c1nc2ccccc2s1 [Z3228044564] | 73 | 100 | – | – | – | – | – | – | – | – | Avg [10]: 73.2; Avg [11]: 84.2; Avg [12]: 91.1; Avg [13]: 103.1; Avg [14]: 104; Avg [15]: 112.9 |
| O=C(CCl)COc1ccc(Cl)cc1 [Z3236282166] | 48 | 100 | – | – | – | – | – | – | – | – | Avg [10]: 47.7; Avg [11]: 63.9; Avg [12]: 86.8; Avg [13]: 98.6; Avg [14]: 103.3; Avg [15]: 106; IC50 [9]: 11.5 µM; LogIC50 (log10 of IC50 in µM): 1.059 |
| CN(C)C(=O)c1csc(C(=O)CCl)c1 [Z3244705145] | 24 | 89 | – | – | – | – | – | – | – | – | Avg [10]: 23.6; Avg [11]: 22.7; Avg [12]: 40.5; Avg [13]: 58.7; Avg [14]: 89; Avg [15]: 99.3; IC50 [9]: 35.9 µM; LogIC50 (log10 of IC50 in µM): 1.555 |
